≈ marks a conversion by molar mass, not a printed value.

The nature of this data set: Solubilization tests of active ingredients by cyclodextrin dimers/trimer (soluble fraction analysed by CLHP). It is filed as physicochemical. The conditions noted are these: thermodynamic from solid; Water alone, no cyclodextrin oligomer; stirred 24 hours; read-out: Amount of active ingredient solubilized in water. As to the method: Each solution is stirred for 24 hours, and then the soluble fractions are analyzed by CLHP after ultracentrifuging and filtration.
Turning to `CCC(=O)O[C@]1(C(=O)SCF)[C@H](C)C[C@H]2[C@@H]3C[C@H](F)C4=CC(=O)C=C[C@]4(C)[C@@]3(F)[C@@H](O)C[C@@]21C` [Fluticasone Propionate], the solubility at 24 h is 0.1 µg/mL (≈ 0.2 µM).
As to `CC[C@H]1OC(=O)[C@H](C)[C@@H](O[C@H]2C[C@@](C)(OC)[C@@H](O)[C@H](C)O2)[C@H](C)[C@@H](O[C@@H]2O[C@H](C)C[C@H](N(C)C)[C@H]2O)[C@](C)(O)C[C@@H](C)/C(=N\OCOCCOC)[C@H](C)[C@@H](O)[C@]1(C)O` [Roxithromycin], the solubility at 24 h came out at 464 µg/mL (≈ 555 µM).
For the molecule `CC(=O)O[C@H]1C(=O)[C@@]2(C)[C@H]([C@H](OC(=O)c3ccccc3)[C@]3(O)C[C@H](OC(=O)[C@H](O)[C@@H](NC(=O)c4ccccc4)c4ccccc4)C(C)=C1C3(C)C)[C@]1(OC(C)=O)CO[C@@H]1C[C@@H]2O` [Taxol], the solubility at 24 h stood at 0.7 µg/mL (≈ 0.82 µM).
The same measure for `CC(=O)O[C@@]12CO[C@@H]1C[C@H](O)[C@@]1(C)C(=O)[C@H](O)C3=C(C)[C@@H](OC(=O)[C@H](O)[C@@H](NC(=O)OC(C)(C)C)c4ccccc4)C[C@@](O)([C@@H](OC(=O)c4ccccc4)[C@H]21)C3(C)C` [Taxotere]: 4 µg/mL (≈ 4.95 µM); for `C[C@@H](c1ncncc1F)[C@](O)(Cn1cncn1)c1ccc(F)cc1F` [Voriconazole]: 685 µg/mL (≈ 1960 µM).

Source of the values: patent publication US20100303754A1, “PROCESS FOR PREPARATION OF CYCLODEXTRIN OLIGOMERS OR POLYMERS, PRODUCTS OBTAINED AND USES” (BIOCYDEX, priority 2006, published 2010).
